The values that follow come from paper PMC5483439, “The Effect of Pungent and Tingling Compounds from Piper nigrum L. on Background K^+ Currents” (Frontiers in Pharmacology, 2017).

Usually IC50 stands for the concentration at which inhibition is half-maximal. Read a high IC50 as lower potency.

For one experiment, the target named is T1, mKCNK3 (Mus musculus, UniProt O35111).
T1 construct: expressed in transfected cells; host or cells: Xenopus laevis oocytes injected with cRNA (plasmid pSGEM)
Kind of experiment: Two-electrode voltage clamp on Xenopus oocytes expressing mKCNK3. It is filed as cell-based. Particulars: 1–1000 μM. The text has this: Human KCNK3 (TASK-1, K2P3.1) cloned into the expression vector pIRES-CD8 was a gift from Dr. Fabrice Duprat (Institut National de la Santé et de la Recherche Médicale, Antipolis, France). Human KCNK18 (hTRESK, K2P18.1), cloned into the plasmid pEXO, was a gift from Dr. P. Enyedi (Semmelweis University, Budapest, Hungary). These plasmids were linearized with the restriction enzymes BamHI and XbaI, respectively, and then used as templates for in vitro transcription. Human KCNK9 (hTASK-3, K2P9.1) cloned into the expression vector pCR4-TOPO, was purchased from Imagenes (Berlin, Germany). The plasmid was linearized with the restriction enzyme SspI, to generate a linear cDNA template for in vitro transcription. mKCNK3 was isolated from mouse heart by standard procedures and inserted into pSGEM. mKCNK9 and mKCNK18 were kindly provided by Dr. D. Bayliss (University of Virginia, Charlottesville, VA, United States) and Prof. Dr. P. Enyedi (Semmelweis University, Budapest, Hungary). Both channels were subcloned into pSGEM. The pSGEM plasmids were subsequently linearized with the restriction enzyme PacI. The capped RNAs were synthesized in the presence of the capping analog m7G(5′)ppp(5′)G using the AmpliCap-T7 Message Maker kit (Epicentre, Madison, WI, United States). The cRNA was dissolved in nuclease-free water to obtain a final concentration of 100 ng/μL. […]

Another experiment addresses T2, hKCNK3 (Homo sapiens, UniProt O14649).
T2 construct: expressed in transfected cells; host or cells: Xenopus laevis oocytes injected with cRNA (plasmid pIRES-CD8, gift of Dr. Fabrice Duprat)
Also noted: method as in Beltrán et al., 2013. Particulars: hKCNK3 in Xenopus oocytes; ref Beltrán et al., 2013; cited from earlier work.

Molecules are shown by their SMILES.

T1 sequence (O35111 whole entry): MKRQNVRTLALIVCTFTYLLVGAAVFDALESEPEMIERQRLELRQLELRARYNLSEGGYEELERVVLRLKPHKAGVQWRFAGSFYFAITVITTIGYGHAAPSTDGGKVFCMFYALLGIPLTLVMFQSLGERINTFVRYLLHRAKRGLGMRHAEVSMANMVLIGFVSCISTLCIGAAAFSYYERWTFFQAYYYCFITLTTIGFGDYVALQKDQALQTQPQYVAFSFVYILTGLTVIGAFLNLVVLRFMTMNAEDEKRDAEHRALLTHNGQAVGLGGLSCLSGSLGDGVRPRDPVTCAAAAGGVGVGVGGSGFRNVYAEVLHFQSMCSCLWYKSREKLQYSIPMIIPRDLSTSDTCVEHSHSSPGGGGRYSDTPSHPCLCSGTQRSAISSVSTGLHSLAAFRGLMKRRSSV
T2 sequence (O14649 whole entry): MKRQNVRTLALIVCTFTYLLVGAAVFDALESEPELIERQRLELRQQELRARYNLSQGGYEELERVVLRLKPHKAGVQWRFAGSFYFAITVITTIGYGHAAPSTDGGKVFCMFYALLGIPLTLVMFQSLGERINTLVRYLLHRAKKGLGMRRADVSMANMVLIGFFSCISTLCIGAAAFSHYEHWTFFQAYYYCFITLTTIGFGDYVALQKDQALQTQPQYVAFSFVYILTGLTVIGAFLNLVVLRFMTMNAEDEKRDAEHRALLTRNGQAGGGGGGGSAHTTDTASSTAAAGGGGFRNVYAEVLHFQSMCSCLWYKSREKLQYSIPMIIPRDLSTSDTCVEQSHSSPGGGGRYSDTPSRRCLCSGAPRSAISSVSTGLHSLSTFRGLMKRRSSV

For `O=C(/C=C/C=C/c1ccc2c(c1)OCO2)N1CCCCC1` [1a, piperine], on mKCNK3, the IC50 stood at 30 ± 2.8 µM. For the same compound, the “% of basal activity after saturating concentrations” value at hKCNK3 was 46 ± 10%.
